As usually defined, the IC50 is the midpoint of a concentration-inhibition curve.

We go through 27 compounds from patent US20240360151A1 (SANOFI, priority 2023, published 2024).

T1 sequence (Q96P20 whole entry): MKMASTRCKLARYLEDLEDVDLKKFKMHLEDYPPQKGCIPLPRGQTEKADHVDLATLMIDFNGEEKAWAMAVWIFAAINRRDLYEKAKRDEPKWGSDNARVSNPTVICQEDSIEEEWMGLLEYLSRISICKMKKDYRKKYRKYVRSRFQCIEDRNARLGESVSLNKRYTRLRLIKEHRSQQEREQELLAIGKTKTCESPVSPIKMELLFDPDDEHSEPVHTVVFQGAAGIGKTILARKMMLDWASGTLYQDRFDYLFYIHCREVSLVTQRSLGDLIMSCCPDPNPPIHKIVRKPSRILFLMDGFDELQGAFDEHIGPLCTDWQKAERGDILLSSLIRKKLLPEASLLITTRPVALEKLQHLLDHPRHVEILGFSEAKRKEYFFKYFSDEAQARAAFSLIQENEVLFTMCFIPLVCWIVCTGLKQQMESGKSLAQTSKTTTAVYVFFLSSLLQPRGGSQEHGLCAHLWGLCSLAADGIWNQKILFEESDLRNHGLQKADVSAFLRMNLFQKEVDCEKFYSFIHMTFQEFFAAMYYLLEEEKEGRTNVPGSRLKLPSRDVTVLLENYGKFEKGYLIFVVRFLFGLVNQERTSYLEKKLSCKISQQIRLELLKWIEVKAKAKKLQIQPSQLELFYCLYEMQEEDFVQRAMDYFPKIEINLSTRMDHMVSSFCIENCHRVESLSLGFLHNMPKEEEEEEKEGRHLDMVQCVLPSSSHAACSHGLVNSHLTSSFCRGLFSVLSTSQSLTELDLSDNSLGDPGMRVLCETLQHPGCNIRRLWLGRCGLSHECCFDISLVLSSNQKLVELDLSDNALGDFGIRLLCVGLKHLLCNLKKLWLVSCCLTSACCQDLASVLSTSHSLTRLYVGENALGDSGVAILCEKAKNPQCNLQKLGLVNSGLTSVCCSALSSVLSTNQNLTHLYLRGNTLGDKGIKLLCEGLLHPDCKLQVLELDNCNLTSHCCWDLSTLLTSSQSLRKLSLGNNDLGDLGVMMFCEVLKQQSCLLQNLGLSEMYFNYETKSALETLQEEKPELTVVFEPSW

The assay addresses T1, NLRP3 inflammasome (Homo sapiens, UniProt Q96P20).
T1 construct: endogenous in cells; host or cells: THP-1 monocytic cells
Kind of assay: IL-1β secretion assay (NLRP3 IC50) in LPS-primed, nigericin-activated THP-1 cells, HTRF. It counts as cell-based. Particulars: monocytic THP-1 cells; LPS 10 ng/mL 3 h priming, then compound + nigericin 10 μM 2 h; relative IC50, 10 concentrations, geometric mean. The method, boiled down:
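IL-1β in supernatant read by HTRF after 2 h co-incubation of compound (0.1% DMSO, 10 concentrations, 1:3 series) with nigericin at 10 μM final, following 3 h LPS (10 ng/mL) priming of THP-1 monocytes at 37° C. Inhibition normalised to unactivated and no-compound controls; geometric-mean relative IC50 from 4-parameter logistic model.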
As to `Cc1cc(C)c(-c2ccc(N3CCO[C@@H]4COCC[C@@H]43)nn2)c(O)c1` (racemic) [Example 111, 2-[6-[rac-(4aS,8aS)-3,4a,5,7,8,8a-hexahydro-2H-pyrano[3,4-b][1,4]oxazin-1-yl]pyridazin-3-yl]-3,5-dimethyl-phenol], the IC50 worked out at 0.496 µM.

Take `CC(=O)N1C[C@H]2OCCN(c3ccc(-c4c(C)cc(C(F)(F)F)cc4O)nn3)[C@H]2C1` (single isomer, unassigned) [Example 352]: the IC50 came out at 0.375 µM. The same measure for `Cc1cc(C)c(-c2ccc(N3CCC[C@@H]4CCNC(=O)[C@@H]43)nn2)c(O)c1` (racemic) [Example 300, rac-(4aR,8aR)-1-[6-(2-hydroxy-4,6-dimethyl-phenyl)pyridazin-3-yl]-2,3,4,4a,5,6,7,8a-octahydro-1,7-naphthyridin-8-one]: 0.177 µM; for `Cc1cc(N2CCO[C@H](CO)C2)nnc1-c1ccc(C(F)(F)F)cc1O` [Example 97, 2-[6-[(2S)-2-(hydroxymethyl)morpholin-4-yl]-4-methyl-pyridazin-3-yl]-5-(trifluoromethyl)phenol]: 0.038 µM; for `Cc1cc(C(F)(F)F)cc(O)c1-c1ccc(N2CCO[C@@H]3CCN(C)C[C@H]32)nn1` (single isomer, unassigned) [Example 301]: 0.868 µM. Consider `CN(C)C[C@H]1CCCN(c2ccc(-c3c(O)cc(Cl)cc3Cl)nn2)C1` [Example 50, 3,5-dichloro-2-[6-[(3R)-3-[(dimethylamino)methyl]-1-piperidyl]pyridazin-3-yl]phenol], for which the IC50 worked out at 0.549 µM. `Cc1cc(C)c(-c2ccc(N3CCOC4CCOCC43)nn2)c(O)c1` (racemic) [Example 421, 3,5-dimethyl-2-[6-[rac-(4aS,8aS)-3,4a,5,7,8,8a-hexahydro-2H-pyrano[4,3-b][1,4]oxazin-4-yl]pyridazin-3-yl]phenol]: the 50% inhibitory concentration (IC50) came out at 1.23 µM. With `CCN1CC[C@@H]2CCN(c3cc(C(F)F)c(-c4ccc(C)cc4O)nn3)[C@@H]2C1` (single isomer, unassigned) [Example 489], the half-inhibitory concentration (IC50) is 0.232 µM. The same measure for `CCN1CCOC2(COCCN(c3ccc(-c4c(C)cc(C)cc4O)nn3)C2)C1` (stereo not drawn) [Example 317, 2-[6-(4-ethyl-1,11-dioxa-4,8-diazaspiro[5.6]dodecan-8-yl)pyridazin-3-yl]-3,5-dimethyl-phenol]: 3 µM.

`CC(=O)N1CC[C@H]2CCN(c3ccc(-c4c(C)cc(C(F)(F)F)cc4O)nn3)[C@H]2C1` [Example 369, 1-[(3aR,7aR)-1-[6-[2-hydroxy-6-methyl-4-(trifluoromethyl)phenyl]pyridazin-3-yl]-3,3a,4,5,7,7a-hexahydro-2H-pyrrolo[2,3-c]pyridin-6-yl]ethanone]: the IC50 is 0.476 µM.

`CN1CC[C@H]2OCCN(c3ccc(-c4c(O)cccc4C(F)(F)F)nn3)[C@H]2C1` [Example 402, 2-[6-[(4aS,8aR)-6-methyl-3,4a,5,7,8,8a-hexahydro-2H-pyrido[4,3-b][1,4]oxazin-4-yl]pyridazin-3-yl]-3-(trifluoromethyl)phenol]: the concentration for half-maximal inhibition (IC50) was determined as 0.022 µM. With `CCN1CCN(c2ccc(-c3c(C)cc(C)cc3O)nn2)CC12CCOC2` (stereo not drawn) [Example 227, 2-[6-(6-ethyl-2-oxa-6,9-diazaspiro[4.5]decan-9-yl)pyridazin-3-yl]-3,5-dimethylphenol] the figure was 1.19 µM. With `Cc1ccc(-c2nnc(N3CCO[C@@H]4CCN(C(C)C)C[C@@H]43)cc2C)c(O)c1` [Example 472, 2-[6-[(4aS,8aR)-6-isopropyl-3,4a,5,7,8,8a-hexahydro-2H-pyrido[4,3-b][1,4]oxazin-4-yl]-4-methyl-pyridazin-3-yl]-5-methyl-phenol] the figure was 0.001 µM; with `CC(=O)N1CC[C@H]2CCN(c3cc(C(F)F)c(-c4ccc(C(F)(F)F)cc4O)nn3)[C@H]2C1` (single isomer, unassigned) [Example 511], 0.571 µM; with `Cc1cc(C)c(-c2ccc(N3CCO[C@@H](C(=O)N(C)C)C3)nn2)c(O)c1` [Example 184, (2R)-4-[6-(2-hydroxy-4,6-dimethylphenyl)pyridazin-3-yl]-N,N-dimethylmorpholine-2-carboxamide], 0.66 µM. The same measure for `Cc1cc(C(F)(F)F)cc(O)c1-c1ccc(N2CC[C@@H](CO)CC2=O)nn1` [Example 292, (4R)-4-(hydroxymethyl)-1-[6-[2-hydroxy-6-methyl-4-(trifluoromethyl)phenyl]pyridazin-3-yl]piperidin-2-one]: 0.265 µM; for `OC[C@@H]1CN(c2cc(C(F)F)c(-c3ccc4c(c3O)CCC4)nn2)CCO1` [Example 345, 5-[4-(difluoromethyl)-6-[(2S)-2-(hydroxymethyl)morpholin-4-yl]pyridazin-3-yl]indan-4-ol]: 0.125 µM. On to `Cc1cc(C)c(-c2ccc(N3CC4(CCC(O)C4)C3)nn2)c(O)c1` (single isomer, unassigned) [Example 95, 2-[6-(2-hydroxy-4,6-dimethyl-phenyl)pyridazin-3-yl]-2-azaspiro[3.4]octan-6-ol], for which the IC50 was determined as 2.2 µM. As to `Cc1cc(C(F)(F)F)cc(O)c1-c1ccc(N2CCOc3c[nH]nc32)nn1` [Example 360, 2-[6-(5,6-dihydro-2H-pyrazolo[4,3-b][1,4]oxazin-7-yl)pyridazin-3-yl]-3-methyl-5-(trifluoromethyl)phenol], the IC50 was determined as 0.42 µM. For the compound `CCc1cc(C)cc(O)c1-c1ccc(N2CC[C@H]3CCN(C)C[C@H]32)nn1` (single isomer, unassigned) [Example 476], the IC50 amounted to 0.209 µM.

Consider `Oc1cc(Cl)ccc1-c1ccc(N2CCO[C@@H]3CCN(CCF)C[C@@H]32)nn1` [Example 525, 2-[6-[(4aS,8aR)-6-(2-fluoroethyl)-3,4a,5,7,8,8a-hexahydro-2H-pyrido[4,3-b][1,4]oxazin-4-yl]pyridazin-3-yl]-5-chloro-phenol], for which the IC50 was determined as 0.631 µM. With `Cc1cc(C)c(-c2ccc(N3CCC[C@H](N(C)C)C3)nn2)c(O)c1` [Example 128, 2-[6-[(3S)-3-(dimethylamino)-1-piperidyl]pyridazin-3-yl]-3,5-dimethyl-phenol] the figure was 0.779 µM; with `CCc1cccc(O)c1-c1ccc(N2CC[C@@H]3CCN(C)C[C@@H]32)nn1` (single isomer, unassigned) [Example 422], 1.14 µM. The same measure for `Cc1cc(C)c(-c2ccc(N3CCO[C@@H](C(C)O)C3)nn2)c(O)c1` (single isomer, unassigned) [Example 108]: 0.545 µM. The same measure for `CC(=O)N1CC[C@@H]2CCN(c3ccc(-c4c(C)cc(C)cc4O)nn3)[C@@H]2C1` (single isomer, unassigned) [Example 414]: 0.699 µM; for `Cc1cc(C)c(-c2ccc(N3CCOC[C@@H]3CN)nn2)c(O)c1` [Example 124, 2-[6-[(3S)-3-(aminomethyl)morpholin-4-yl]pyridazin-3-yl]-3,5-dimethyl-phenol]: 1.05 µM. As for `COc1cc(C)c(-c2ccc(N3CCO[C@H](CO)C3)nn2)c(O)c1` [Example 96, 2-[6-[(2S)-2-(hydroxymethyl)morpholin-4-yl]pyridazin-3-yl]-5-methoxy-3-methyl-phenol], the half-maximal inhibitory concentration (IC50) is 0.124 µM.
